This test addresses human recombinant H-PGDS (Homo sapiens, UniProt O60760). The test can be described thus: Fluorescence intensity h-PGDS TBA enzyme assay. The class given is biochemical. The note with it: Examples up to 622 (and 3a, 3b).

SMILES strings stand for the structures. pIC50: −log10 of the molar value.

Sequence of human recombinant H-PGDS (O60760 whole entry): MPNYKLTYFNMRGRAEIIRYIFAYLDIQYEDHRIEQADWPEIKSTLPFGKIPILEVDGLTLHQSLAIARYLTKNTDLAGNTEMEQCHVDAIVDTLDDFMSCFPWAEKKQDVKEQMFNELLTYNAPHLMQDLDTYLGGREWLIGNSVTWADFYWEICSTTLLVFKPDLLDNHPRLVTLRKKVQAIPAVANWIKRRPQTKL

The term pIC50 denotes the IC50 on a negative log10 scale, so that one unit is a factor of ten. For `Cc1ccccc1-c1ncc(CN2CCC(NC(=O)c3ccc(-c4cccc(F)c4)nc3)CC2)cn1` [Example 434, 6-(3-Fluorophenyl)-N-(1-{[2-(2-methylphenyl)pyrimidin-5-yl]methyl}piperidin-4-yl)nicotinamide], the pIC50 was 8.82.

For the compound `Cc1cccc(-n2ccnc2CN2CCC(NC(=O)c3ccc(-c4cccc(F)c4)nc3)CC2)c1` [Example 435, 6-(3-Fluorophenyl)-N-(1-{[1-(3-methylphenyl)-1H-imidazol-2-yl]methyl}piperidin-4-yl)nicotinamide], the pIC50 is 9.04.

For the compound `O=C(NC1CCN(Cc2ccccc2Cn2cccn2)CC1)c1ccc(-c2cccc(F)c2)nc1` [Example 436, 6-(3-Fluorophenyl)-N-{1-[2-(1H-pyrazol-1-ylmethyl)benzyl]piperidin-4-yl}nicotinamide], the pIC50 was 9.05.

`COc1ccccc1-c1ncc(CN2CCC(NC(=O)c3ccc(-c4cccc(F)c4)nc3)CC2)cn1` [Example 437, 6-(3-Fluorophenyl)-N-(1-{[2-(2-methoxyphenyl)pyrimidin-5-yl]methyl}piperidin-4-yl)nicotinamide]: the pIC50 was 8.45.

As to `Cc1ccc(-n2cccn2)c(CN2CCC(NC(=O)c3ccc(-c4cccc(F)c4)nc3)CC2)c1` [Example 438, 6-(3-Fluorophenyl)-N-{1-[5-methyl-2-(1H-pyrazol-1-yl)benzyl]piperidin-4-yl}nicotinamide], the pIC50 is 9.38.

For the compound `O=C(NC1CCN(Cc2c[nH]nc2-c2cccc(F)c2)CC1)c1ccc(-c2cccc(F)c2)nc1` [Example 439, 6-(3-Fluorophenyl)-N-(1-{[3-(3-fluorophenyl)-1H-pyrazol-4-yl]methyl}piperidin-4-yl)nicotinamide], the pIC50 was 9.12.

Turning to `COCCc1ncc(CN2CCC(NC(=O)c3ccc(-c4cccc(F)c4)nc3)CC2)cn1` [Example 440, 6-(3-Fluorophenyl)-N-(1-{[2-(2-methoxyethyl)pyrimidin-5-yl]methyl}piperidin-4-yl)nicotinamide], the pIC50 is 8.71.

As to `CCCc1ncc(CN2CCC(NC(=O)c3ccc(-c4cccc(F)c4)nc3)CC2)cn1` [Example 441, 6-(3-Fluorophenyl)-N-{1-[(2-propylpyrimidin-5-yl)methyl]piperidin-4-yl}nicotinamide], the pIC50 was 8.59.

Turning to `CCc1ncc(CN2CCC(NC(=O)c3ccc(-c4cccc(F)c4)nc3)CC2)cn1` [Example 442, N-{1-[(2-Ethylpyrimidin-5-yl)methyl]piperidin-4-yl}-6-(3-fluorophenyl)nicotinamide], the pIC50 is 8.56.

Consider `Cc1ncc(CN2CCC(NC(=O)c3ccc(-c4cccc(F)c4)nc3)CC2)cn1` [Example 443, 6-(3-Fluorophenyl)-N-{1-[(2-methylpyrimidin-5-yl)methyl]piperidin-4-yl}nicotinamide], for which the pIC50 is 8.80.

Consider `Cc1nc(C)c(CN2CCC(NC(=O)c3ccc(-c4cccc(F)c4)nc3)CC2)nc1C` [Example 444, 6-(3-Fluorophenyl)-N-{1-[(3,5,6-trimethylpyrazin-2-yl)methyl]piperidin-4-yl}nicotinamide], for which the pIC50 was 9.87.

Regarding `Cc1nc2ccc(Cl)cn2c1CN1CCC(NC(=O)c2ccc(-c3cccc(F)c3)nc2)CC1` [Example 445, N-{1-[(6-Chloro-2-methylimidazo[1,2-a]pyridin-3-yl)methyl]piperidin-4-yl}-6-(3-fluorophenyl)nicotinamide], the pIC50 was 8.37.

For the compound `Cc1ncc(CN2CCC(NC(=O)c3ccc(-c4cccc(F)c4)nc3)CC2)s1` [Example 446, 6-(3-Fluorophenyl)-N-{1-[(2-methyl-1,3-thiazol-5-yl)methyl]piperidin-4-yl}nicotinamide], the pIC50 was 9.05.

As for `COCn1c(CN2CCC(NC(=O)c3ccc(-c4cccc(F)c4)nc3)CC2)nc2ccccc21` [Example 447, 6-(3-Fluorophenyl)-N-(1-{[1-(methoxymethyl)-1H-benzimidazol-2-yl]methyl}piperidin-4-yl)nicotinamide], the pIC50 was 8.96.

In the case of `O=C(NC1CCN(Cc2nc3cccc4c3n2CCC4)CC1)c1ccc(-c2cccc(F)c2)nc1` [Example 448, N-[1-(5,6-Dihydro-4H-imidazo[4,51-ij]quinolin-2-ylmethyl)piperidin-4-yl]-6-(3-fluorophenyl)nicotinamide], the pIC50 was 8.61.

With `Cn1c(CN2CCC(NC(=O)c3ccc(-c4cccc(F)c4)nc3)CC2)nc2cc(F)c(F)cc21` [Example 449, N-{1-[(5,6-Difluoro-1-methyl-1H-benzimidazol-2-yl)methyl]piperidin-4-yl}-6-(3-fluorophenyl)nicotinamide], the pIC50 is 8.55.

In the case of `O=C(NC1CCN(Cc2ccnc3cccnc23)CC1)c1ccc(-c2cccc(F)c2)nc1` [Example 450, 6-(3-Fluorophenyl)-N-[1-(1,5-naphthyridin-4-ylmethyl)piperidin-4-yl]nicotinamide], the pIC50 is 8.69.

As for `O=C(NC1CCN(Cc2ccnc3nccnc23)CC1)c1ccc(-c2cccc(F)c2)nc1` [Example 451, 6-(3-Fluorophenyl)-N-[1-(pyrido[2,3-b]pyrazin-8-ylmethyl)piperidin-4-yl]nicotinamide], the pIC50 is 9.06.

With `O=C(NC1CCN(Cc2ccnc3ncccc23)CC1)c1ccc(-c2cccc(F)c2)nc1` [Example 452, 6-(3-Fluorophenyl)-N-[1-(1,8-naphthyridin-4-ylmethyl)piperidin-4-yl]nicotinamide], the pIC50 was 9.14.

Regarding `O=C(NC1CCN(Cc2ccc(CN3CCOCC3)cc2)CC1)c1ccc(-c2cccc(F)c2)nc1` [Example 453, 6-(3-Fluorophenyl)-N-{1-[4-(morpholin-4-ylmethyl)benzyl]piperidin-4-yl}nicotinamide], the pIC50 was 8.85.

`Cc1nnc(-c2ccc(CN3CCC(NC(=O)c4ccc(-c5cccc(F)c5)nc4)CC3)cc2)o1` [Example 454, 6-(3-Fluorophenyl)-N-{1-[4-(5-methyl-1,3,4-oxadiazol-2-yl)benzyl]piperidin-4-yl}nicotinamide]: the pIC50 is 9.09.

`Cc1cnc(CN2CCC(NC(=O)c3ccc(-c4cccc(F)c4)nc3)CC2)cn1` [Example 455, 6-(3-Fluorophenyl)-N-{1-[(5-methylpyrazin-2-yl)methyl]piperidin-4-yl}nicotinamide]: the pIC50 is 8.87.

Consider `O=C(NC1CCN(Cc2nc3cccc4c3n2CC=C4)CC1)c1ccc(-c2cccc(F)c2)nc1` [Example 456, 6-(3-Fluorophenyl)-N-[1-(4H-imidazo[4,51-ij]quinolin-2-ylmethyl)piperidin-4-yl]nicotinamide], for which the pIC50 was 8.69.

As for `CCOC(=O)c1csc(CN2CCC(NC(=O)c3ccc(-c4cccc(F)c4)nc3)CC2)n1` [Example 457, Ethyl 2-{[4-({[6-(3-fluorophenyl)pyridin-3-yl]carbonyl}amino)piperidin-1-yl]methyl}-1,3-thiazole-4-carboxylate], the pIC50 was 9.12.

For `C[C@@H]1Oc2ccc(CN3CCC(NC(=O)c4ccc(-c5cccc(F)c5)nc4)CC3)cc2[C@H]1C(=O)O` [Example 458, (2S,3R)-5-{[4-({[6-(3-Fluorophenyl)pyridin-3-yl]carbonyl}amino)piperidin-1-yl]methyl}-2-methyl-2,3-dihydro-1-benzofuran-3-carboxylic acid], the pIC50 is 8.75.

`CCOc1ncccc1CN1CCC(NC(=O)c2ccc(-c3cccc(F)c3)nc2)CC1` [Example 459, N-{1-[(2-Ethoxypyridin-3-yl)methyl]piperidin-4-yl}-6-(3-fluorophenyl)nicotinamide]: the pIC50 is 9.14.

Consider `COc1ncccc1CN1CCC(NC(=O)c2ccc(-c3cccc(F)c3)nc2)CC1` [Example 460, 6-(3-Fluorophenyl)-N-{1-[(2-methoxypyridin-3-yl)methyl]piperidin-4-yl}nicotinamide], for which the pIC50 is 8.89.

With `CC(C)Oc1ncccc1CN1CCC(NC(=O)c2ccc(-c3cccc(F)c3)nc2)CC1` [Example 461, 6-(3-Fluorophenyl)-N-{1-[(2-isopropoxypyridin-3-yl)methyl]piperidin-4-yl}nicotinamide], the pIC50 is 9.62.

Regarding `O=C(NC1CCN(Cc2cccnc2OCC2CC2)CC1)c1ccc(-c2cccc(F)c2)nc1` [Example 462, N-(1-{[2-(Cyclopropylmethoxy)pyridin-3-yl]methyl}piperidin-4-yl)-6-(3-fluorophenyl)nicotinamide], the pIC50 is 9.58.

`O=C(NC1CCN(Cc2cccc(CF)n2)CC1)c1ccc(-c2cccc(F)c2)nc1` [Example 463, N-(1-{[6-(Fluoromethyl)pyridin-2-yl]methyl}piperidin-4-yl)-6-(3-fluorophenyl)nicotinamide]: the pIC50 was 9.41.

As for `CC(C)(O)c1cc(CN2CCC(NC(=O)c3ccc(-c4cccc(F)c4)nc3)CC2)ccn1` [Example 464, 6-(3-Fluorophenyl)-N-(1-{[2-(1-hydroxy-1-methylethyl)pyridin-4-yl]methyl}piperidin-4-yl)nicotinamide], the pIC50 was 8.99.

In the case of `O=C(NC1CCN(Cc2ccc3c(n2)NCCC3)CC1)c1ccc(-c2cccc(F)c2)nc1` [Example 465, 6-(3-Fluorophenyl)-N-[1-(5,6,7,8-tetrahydro-18-naphthyridin-2-ylmethyl)piperidin-4-yl]nicotinamide], the pIC50 was 9.06.

For `CCOC(=O)Cn1cc(CN2CCC(NC(=O)c3ccc(-c4cccc(F)c4)nc3)CC2)cn1` [Example 466, Ethyl (4-{[4-({[6-(3-fluorophenyl)pyridin-3-yl]carbonyl}amino)piperidin-1-yl]methyl}-1H-pyrazol-1-yl)acetate], the pIC50 is 8.83.

For `COc1cc(CN2CCC(NC(=O)c3ccc(-c4cccc(F)c4)nc3)CC2)c(F)cc1Cl` [Example 467, N-[1-(4-Chloro-2-fluoro-5-methoxybenzyl)piperidin-4-yl]-6-(3-fluorophenyl)nicotinamide], the pIC50 is 9.59.

With `O=C(NC1CCN(Cc2ccc(=O)[nH]n2)CC1)c1ccc(-c2cccc(F)c2)nc1` [Example 469, 6-(3-Fluorophenyl)-N-{1-[(6-oxo-1,6-dihydropyridazin-3-yl)methyl]piperidin-4-yl}nicotinamide], the pIC50 was 9.07.

For the compound `CC(C)c1nnc2ccc(CN3CCC(NC(=O)c4ccc(-c5cccc(F)c5)nc4)CC3)cn12` [Example 470, 6-(3-Fluorophenyl)-N-{1-[(3-isopropyl[1,2,4]triazolo[4,3-a]pyridin-6-yl)methyl]piperidin-4-yl}nicotinamide], the pIC50 is 8.38.

The values above are taken from patent US7902373B2 (Pfizer Inc, priority 2006, dated 2011).
